The target in the test is T1, FES (FPS) (Homo sapiens, UniProt P07332).
T1 construct: purchased Thermo Fisher Scientific (Life Technologies) SelectScreen
The test can be described thus: SelectScreen Z'LYTE. It is filed as biochemical. The method, boiled down:
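NU5455 was profiled across the SelectScreen Broad panel of kinase activity and binding assays. Z'LYTE reactions such as CSF1R ran at apparent Km ATP, while the Adapta CAMK1 assay used ATP listed as 10. Values are given as percent.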

T1 sequence (P07332 whole entry): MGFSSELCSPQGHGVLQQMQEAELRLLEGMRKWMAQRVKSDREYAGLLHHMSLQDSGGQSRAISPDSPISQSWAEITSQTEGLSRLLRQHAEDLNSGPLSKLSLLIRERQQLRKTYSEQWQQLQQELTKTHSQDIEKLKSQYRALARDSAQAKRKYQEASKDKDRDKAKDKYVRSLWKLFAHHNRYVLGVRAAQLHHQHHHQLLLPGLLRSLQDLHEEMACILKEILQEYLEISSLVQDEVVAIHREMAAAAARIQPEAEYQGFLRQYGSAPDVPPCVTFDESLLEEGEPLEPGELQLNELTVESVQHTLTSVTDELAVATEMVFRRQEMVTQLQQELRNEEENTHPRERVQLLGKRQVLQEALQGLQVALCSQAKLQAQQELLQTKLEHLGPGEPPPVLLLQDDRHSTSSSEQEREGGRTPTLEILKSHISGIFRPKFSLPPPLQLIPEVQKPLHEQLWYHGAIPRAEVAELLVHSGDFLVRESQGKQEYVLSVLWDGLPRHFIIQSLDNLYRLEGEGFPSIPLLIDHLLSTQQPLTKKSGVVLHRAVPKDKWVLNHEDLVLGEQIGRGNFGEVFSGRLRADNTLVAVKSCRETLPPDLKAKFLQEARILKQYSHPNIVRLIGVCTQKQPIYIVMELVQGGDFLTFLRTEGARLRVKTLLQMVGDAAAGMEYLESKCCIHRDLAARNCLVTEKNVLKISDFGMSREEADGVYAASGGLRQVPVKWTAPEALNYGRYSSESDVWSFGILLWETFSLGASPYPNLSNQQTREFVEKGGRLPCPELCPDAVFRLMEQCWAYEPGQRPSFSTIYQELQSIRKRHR

As for `CN(C(=O)CN1CCOCC1)c1ccc2sc3c(-c4cccc5c(=O)cc(N6CC7CCC(C6)O7)oc45)cccc3c2c1` [NU5455], 1 µM produced 10.4% inhibition.

Values taken from PMC6934184, “Selective DNA-PKcs inhibition extends the therapeutic index of localized radiotherapy and chemotherapy” (The Journal of Clinical Investigation, 2019).
